Data from patent US20230303478A1, “PROCESS FOR PREPARING CARBOXYLIC ACID ESTERS OF HYDROXYBUTANOATES” (IOI Oleo GmbH, priority 2020, published 2023).

Columns and labels:
[1] = Cleavage (in-vitro digestion) experiments in FaSSGF medium, which simulates the stomach; type: in vitro ADME; settings: cleavage experiments in FaSSGF or FaSSIF medium; stepwise release, retardation effect
Text: By means of cleavage experiments it is shown that carboxylic acid esters of 3-hydroxybutanoate produced according to the invention or mixtures thereof (cf. previously described experiments according to I., II. and III.), including reaction by-products such as dimers, etc., can be cleaved in the human gastrointestinal tract.
In each case, purified reaction products obtained by the inventive method are used as starting mixtures (i.e. tartaric acid ester of 3-hydroxybutanoate, lactic acid ester of 3-hydroxybutanoate, succinic acid ester of 3-hydroxybutanoate, citric acid ester of 3-hydroxybutanoate, maleic acid ester of 3-hydroxybutanoate, fumaric acid ester of 3-hydroxybutanoate, malic acid ester of 3-hydroxybutanoate and adipic acid ester of 3-hydroxybutanoate).
For the cleavage experiments under near-body conditions two media are investigated: • FaSSGF, which simulates the stomach • FaSSIF, which simulates the intestinal tract
Both media are from the company Biorelevant®, Ltd. in Great Britain. In addition, in some experiments porcine pancreas is added (Panzytrat® 40,000, Fa. Allergan).
Under FaSSIF conditions, a lower conversion using Panzytrat® takes place.
Accordingly, the cleavage experiments of dicarboxylic acid esters of 3-hydroxybutanoates also proceed in a cascade. Thus, a retardation effect is present overall.

[2] = even if several grams are taken; patients; cited from earlier work

SMILES | course of the cleavage of 3-hydroxybutanoate [1] | duration of ketosis [2]
CCOC(=O)CC(C)OC(=O)CC(O)(CC(=O)OC(C)CC(=O)OCC)C(=O)OC(C)CC(=O)OCC (centres unmarked) [1,2,3-tris-(4-ethoxy-4-oxobutan-2yl)-2-hydroxypropane-1,2,3-tricarboxylate] | proceeds in a cascade | –
CC(O)CC(=O)O (centres unmarked) [3-hydroxybutyric acid] | – | about three to four
